Data on 14 compounds can be found in ChEMBL document CHEMBL3085680, “Design and synthesis of P1-P3 macrocyclic tertiary-alcohol-comprising HIV-1 protease inhibitors” (J Med Chem, 2013).

A short description of data set [1]: Cytotoxicity against human MT4 cells after 5 days by XTT assay. It counts as cell-based. On the technique in general: Formazan colour is commonly taken as a measure of viable cells.
Data set [2] has as its target Protease (Human immunodeficiency virus 1, UniProt Q9YQ12). The data set can be described thus: Inhibition of HIV1 protease expressed in Escherichia coli by fluorometric assay.
The subject of data set [3] is Human immunodeficiency virus. Nature of the data set: Antiviral activity against HIV infected in human MT4 cells assessed as inhibition of virus-induced cytopathogenic effect by XTT assay. It counts as functional, organism-based. Particulars: Human immunodeficiency virus 1, MT4. In general terms: Damage to the host cells serves as the signal in cytopathic effect assays.

A short description of data set [4]: Permeability of the compound across human Caco2 cells. Format: ADME, cell-based. To be noted: Caco-2, read-out: permeability.

Protease, sequence (Q9YQ12 whole entry): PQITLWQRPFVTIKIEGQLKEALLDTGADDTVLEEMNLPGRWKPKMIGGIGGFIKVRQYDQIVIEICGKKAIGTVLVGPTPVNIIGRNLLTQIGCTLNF

Usually CC50 stands for the concentration giving 50% cytotoxicity. A lower CC50 goes with harm at low concentration. Broadly, the Ki is the dissociation constant of the complex between target and ligand, obtained from inhibition or displacement. The low end stands for tighter binding, the high end for weaker binding. Broadly, the EC50 is the midpoint of the concentration-response curve. In data set [1], `C=CCNC(=O)[C@@H](NC(=O)[C@@](O)(CCCN(Cc1ccc(Br)cc1)NC(=O)[C@@H](NC(=O)OC)C(C)(C)C)Cc1ccc(Br)cc1)C(C)C` displayed a CC50 at 120 h of 22 µM. Further, affinity in data set [2] was put at a Ki of 0.011 µM. In data set [3], the 50% effective concentration (EC50) is 5.8 µM.

In turn, `C=CCNC(=O)[C@@H](NC(=O)[C@@](O)(CCCN(Cc1ccc(Br)cc1)NC(=O)[C@@H](NC(=O)OC)C(C)(C)C)Cc1ccc(Br)cc1)C(C)(C)C` had a CC50 at 120 h in data set [1] of 29 µM. Also, in data set [2], the Ki is 0.01 µM. Besides, the concentration giving a half-maximal response (EC50) in data set [3] is 2.9 µM.

For `C=CCNC(=O)[C@@H](NC(=O)[C@@](O)(CCCN(Cc1ccc(Br)cc1)NC(=O)[C@@H](NC(=O)OC)C(C)(C)C)Cc1ccc(C=C)cc1)C(C)C`, in data set [1], the CC50 at 120 h came out at 25 µM. This compound also displayed a Ki in data set [2] of 0.015 µM. In addition, the EC50 in data set [3] was determined as 6.9 µM.

The compound `C=CCNC(=O)[C@@H](NC(=O)[C@@](O)(CCCN(Cc1ccc(Br)cc1)NC(=O)[C@@H](NC(=O)OC)C(C)(C)C)Cc1ccc(C=C)cc1)C(C)(C)C` had a CC50 at 120 h in data set [1] of 44 µM. This compound also returned an inhibition constant (Ki) in data set [2] of 0.016 µM. Besides, the Papp in data set [4] was 45 ×10⁻⁶ cm/s. Moreover, in data set [3], the 50% effective concentration (EC50) was 5.3 µM.

On to `C=CCNC(=O)[C@@H](NC(=O)[C@@](O)(CCCN(Cc1ccc(Br)cc1)NC(=O)[C@@H](NC(=O)OC)C(C)(C)C)Cc1ccc(CC=C)cc1)C(C)C`, for which it took 24 µM to reach half-maximal cytotoxicity in data set [1] (CC50 at 120 h). In data set [2], this compound had an inhibitory constant (Ki) of 0.03 µM. Also, the Papp in data set [4] worked out at 44 ×10⁻⁶ cm/s. Moreover, the EC50 in data set [3] is 6 µM.

`C=CCNC(=O)[C@@H](NC(=O)[C@@](O)(CCCN(Cc1ccc(Br)cc1)NC(=O)[C@@H](NC(=O)OC)C(C)(C)C)Cc1ccc(CC=C)cc1)C(C)(C)C`: the 50% cytotoxic concentration (CC50) at 120 h in data set [1] is above 50 µM. The Ki in data set [2] came out at 0.037 µM. In addition, in data set [4], the Papp was determined as 44 ×10⁻⁶ cm/s. For the same compound, the EC50 in data set [3] is 7.5 µM.

In data set [1], `C=CCNC(=O)[C@@H](NC(=O)[C@](O)(CCCN(Cc1ccc(Br)cc1)NC(=O)[C@@H](NC(=O)OC)C(C)(C)C)Cc1ccc(Br)cc1)C(C)C` yielded a CC50 at 120 h of 4.5 µM. Also, the inhibition constant (Ki) in data set [2] turned out to be 1 µM. The EC50 in data set [3] is above 50 µM.

In data set [1], `C=CCNC(=O)[C@@H](NC(=O)[C@](O)(CCCN(Cc1ccc(Br)cc1)NC(=O)[C@@H](NC(=O)OC)C(C)(C)C)Cc1ccc(Br)cc1)C(C)(C)C` came in with a half-maximal cytotoxic concentration (CC50) at 120 h of 21 µM. The same compound yielded a Ki in data set [2] of 0.98 µM. The EC50 in data set [3] is above 50 µM.

On to `C=CCNC(=O)[C@@H](NC(=O)[C@](O)(CCCN(Cc1ccc(Br)cc1)NC(=O)[C@@H](NC(=O)OC)C(C)(C)C)Cc1ccc(C=C)cc1)C(C)C`, for which it took 5.8 µM to reach half-maximal cytotoxicity in data set [1] (CC50 at 120 h). This compound yielded a Ki in data set [2] of 0.78 µM. Besides, in data set [3], the EC50 is above 50 µM.

With `C=CCNC(=O)[C@@H](NC(=O)[C@](O)(CCCN(Cc1ccc(Br)cc1)NC(=O)[C@@H](NC(=O)OC)C(C)(C)C)Cc1ccc(C=C)cc1)C(C)(C)C`, the half-maximal cytotoxic concentration (CC50) at 120 h in data set [1] came out at 25 µM. For the same compound, the Ki in data set [2] amounted to 0.72 µM. In addition, the EC50 in data set [3] was above 50 µM.

`COC(=O)N[C@H](C(=O)NN(CCC[C@@]1(O)Cc2ccc(cc2)/C=C\CNC(=O)[C@H](C(C)(C)C)NC1=O)Cc1ccc(Br)cc1)C(C)(C)C`: in data set [1], the midpoint of cytotoxicity, the CC50 at 120 h, lay at 40 µM. For the same compound, the Ki in data set [2] worked out at 0.005 µM. Moreover, in data set [4], the Papp worked out at 31 ×10⁻⁶ cm/s. The 50% effective concentration (EC50) in data set [3] stood at 3.3 µM.

With `COC(=O)N[C@H](C(=O)NN(CCC[C@@]1(O)Cc2ccc(cc2)C/C=C\CNC(=O)[C@H](C(C)C)NC1=O)Cc1ccc(Br)cc1)C(C)(C)C`, the 50% cytotoxic concentration (CC50) at 120 h in data set [1] was above 50 µM. The compound further showed a Ki in data set [2] of 0.0031 µM. The Papp in data set [4] was 9 ×10⁻⁶ cm/s. Further, the EC50 in data set [3] was 0.37 µM.

For `COC(=O)N[C@H](C(=O)NN(CCC[C@@]1(O)Cc2ccc(cc2)C/C=C\CNC(=O)[C@H](C(C)(C)C)NC1=O)Cc1ccc(Br)cc1)C(C)(C)C`, the 50% cytotoxic concentration (CC50) at 120 h in data set [1] is 30 µM. The Ki in data set [2] turned out to be 0.0042 µM. In data set [4], the Papp turned out to be 10 ×10⁻⁶ cm/s. In data set [3], the concentration giving a half-maximal response (EC50) was 1 µM.

`CNC(=O)[C@@H](NC(=O)[C@@](O)(CCCN(Cc1ccc(Br)cc1)NC(=O)[C@@H](NC(=O)OC)C(C)(C)C)Cc1ccccc1)C(C)C`: the CC50 at 120 h in data set [1] is above 10 µM. Besides, the 50% effective concentration (EC50) in data set [3] is 2.1 µM.
